Measurements published in patent US20240325373A1, “METHODS AND COMPOSITIONS FOR INHIBITION OF DIHYDROOROTATE DEHYDROGENASE IN COMBINATION WITH AN ANTI-CD47-SIRPA THERAPEUTIC AGENT” (OHIO STATE INNOVATION FOUNDATION, priority 2021, published 2024).

Experiments:
MV4-11 cells = assay: CALR, CD47 and SIRPα surface expression (MFI, flow cytometry) in MV4-11 cells after DHODHi treatment with or without uridine; type: cell-based; conditions: 72 h; BRQ 500 nM, Cpd4 10, 25, 50, 100 nM, BAY 1 nM; reversible with 0.1 mM uridine
Description: MV4-11 cells were treated with vehicle (DMSO), brequinar (BRQ, 500 nM), Cpd4 (10, 25, 50, 100 nM), or BAY2402234 (BAY, 1 nM) for 72 hours, in the presence or absence of exogenous uridine (0.1 mM). After the 72-hour treatment, cells were collected, washed and stained for flow cytometric analysis and the mean fluorescent intensity (MFI) measured to determine calreticulin (CALR) and CD47 surface expression.
(§1) FIGS. 8A-8B show representative data for the Mean Fluorescent Intensity (MFI) of SIRPα (CD172a) surface expression following the indicated treatments. […] Briefly, cells were treated for 72 hours to determine SIRPα level using flow cytometry and determine if SIRPα level was different in the P53 mutant clones. As shown, SIRPα level appears modestly higher in the heterozygous P53 MV4-11 clone. […] Briefly, MV4-11 cells were treated for 72 hours with DHODHi with or without uridine to measure SIRPα surface expression post DHODHi therapy.

MOLM-13 cells = assay: Disseminated MOLM-13 xenograft, treatment from 4 days after implantation (Example 5); type: in vivo; set-up: ILS / Median survival: unit not given here; conditions: for Statistical Significance: vs vehicle; for Median survival Ratio: Column A (vehicle) to Column B; for Median survival: treated group; for Hazard Ratio (Logrank) Ratio / Hazard Ratio (Mantel-Haenszel) Ratio: vehicle (Group 1) vs treated
Description: Briefly, ten week old male NCG mice (NOD-Prkdcem26Cd52//2rgem26Cd22/NjuCrl, Charles River) were injected intravenously (i.v.) in the tail vein with 1×10^5 MOLM-13 cells resuspended in cold phosphate buffer saline (PBS), using 0.2 mL of a suspension at 5×10^5 MOLM-13 cells/mL. Four days after tumor cell implantation, which was designated as Day 1 of the study, mice were randomized into eight treatment groups (n=10) based on body weights. Note that for the sample administration above, vehicle was a 50/50 mix of 40% HPBCD in sterile water and 10% Ethanol/90% PEG400. […] The remaining mice were left on study to monitor for an additional 25 days to determine if any residual disease would relapse following drug cessation. Thus, at day 106, all remaining mice were euthanized and spleens and bone marrow were harvested and analyzed by flow cytometry to investigate whether residual disease was present.

[1] = tested on: MV4-11 P53 wild type, heterozygous and homozygous clones; assay: Sensitivity and CD47/SIRPα surface expression of MV4-11 P53 clones treated with DHODHi; type: cell-based; conditions: 72 h; reversed with 0.1 mM exogenous uridine
Description: MV4-11 cell line was reported to harbor a R248W TP53 hotspot mutation (Yan B, Chen Q, Xu J, Li W, Xu B, Qiu Y. Leukemia 2020 doi 10.1038/s41375-020-0710-7.). Accordingly, the MV4-11 cell line was single cell sorted to separate the P53 mutant sub-clone and generated three clones; P53 wild type, P53 heterozygous, and P53 homozygous to interrogate the potential role of P53 mutation on DHODHi activity and if DHODHi affected CD47 expression. Therefore, MV4-11 clones were treated with DHODHi, brequinar (BRQ) or Cpd4 for 72 hours. Cells were then collected, washed with PBS then stained for flow cytometry analysis of CD47 surface expression and the overall sensitivity of the MV4-11 clones to DHODHi.
as §1

MM1.S = assay: CD47 surface expression by flow cytometry in multiple myeloma cell line MM1.S; type: cell-based; conditions: from 48 h after the start of treatment
Description: (§2) Briefly, tumor cells were typically grown at 37° C. in a humidified atmosphere with 5% C02 in RPMI 1640 medium, supplemented with 10% (v/v) fetal calf serum and 50 μg/ml gentamicin for up to 20 passages, and were typically passaged once or twice weekly. Cells were harvested by centrifugation, and the percentage of viable cells were determined using a CASY Model TT cell counter (OMNI Life Science). Cells were harvested from exponential phase cultures, counted and plated in […] plates at a cell density depending on the cell line's growth rate in RPMI 1640 medium supplemented with 10% (v/v) fetal calf serum and 50 µg/ml gentamicin (140 μl/well). At the time of plating, a t=0 h timepoint was taken as a baseline measurement (dotted horizontal lines in the figures). Cultures were incubated at 37° C. and 5% C02 in a humidified atmosphere. At 24 h after cell seeding, DMSO (vehicle control) or the test compound at three different concentrations was added, and left on the cells for another 48 h, 96 h, or 144 h. […] After standard washing techniques, the cells were analyzed on an Attune NxT Acoustic Focusing Cytometer (Thermo Fisher Scientific, Waltham, MA). Antibody Binding Capacity (ABC) was determined using Quantum™ Simply Cellular® quantification beads (Bio-Rad Laboratories, Hercules, CA).

U266B1 = assay: CD47 surface expression and viability by flow cytometry in multiple myeloma cell line U266B1; type: cell-based; conditions: three concentrations of Cpd4
Description: as §2

[2] = Separate cell-based assays (IC50 of Cpd4)
H929 = assay: CD47 surface expression by flow cytometry in multiple myeloma cell line H929; type: cell-based; conditions: from 48 h after the start of treatment
Description: as §2

MOLM-13 tumor cells = assay: Disseminated MOLM-13 aggressive xenograft, treatment from 10 days after implantation (Example 6); type: in vivo; conditions: for BW Nadir (Lowest Mean Body Weight for Group): % of initial mean BW
Description: Briefly, NCG mice were i.v. injected in the tail vein with 1×10^5 MOLM-13 tumor cells suspended in PBS in a cell injection volume of 0.2 mL/mouse. Animals were randomized into treatment groups based on Day 1 body weight. The study start date (Day 1) was at 10 days post implant (tumor injection). In the study, males were separated into single housing if excessive fighting or aggressive behavior was observed. The animals were 8 to 12 weeks old at study start. […] Any group with a mean body weight loss of >20% or >10% mortality had dosing terminated, but not euthanized, and allowed to recover. Within a group, any individual animal with a >20% weight loss endpoint were euthanized. […] At the endpoint, the animals were euthanized per standard procedure. Clinical signs associated with progression of tumor include impairment of hind limb function, ocular proptosis, and weight loss. Full hindlimb paralysis, ocular proptosis, or moribundity were considered sufficient for euthanasia.

[3] = tested on: a variety of unrelated viruses; conditions: in vitro; Harvey et al. (2009); read-out: EC50, inhibition of virus replication; cited from earlier work

CCn1c(CO)nn(-c2cc(O[C@@H](C)C(F)(F)F)c(C(=O)Nc3c(F)cccc3Cl)cc2F)c1=O [BAY2402234, N-(2-chloro-6-fluorophenyl)-4-(4-ethyl-3-(hydroxymethyl)-5-oxo-4,5-dihydro-1H-1,2,4-triazol-1-yl)-5-fluoro-2-((1,1,1-trifluoropropan-2-yl)oxy)benzamide, reference compound]
CALR surface expression (MFI) (MV4-11 cells): upregulated | CD47 surface expression (MFI) (MV4-11 cells): upregulated | Deaths NTRa (MOLM-13 cells; 4 mg/kg po qd): 1 | ILS (MOLM-13 cells; 4 mg/kg po qd): 144 | Mean BW Nadir (MOLM-13 cells; 4 mg/kg po qd): −5.7% | Median TTE (MOLM-13 cells; 4 mg/kg po qd): 44.0 | n Remaining Day 106 (MOLM-13 cells; 4 mg/kg po qd): 0 | Statistical Significance (MOLM-13 cells; 4 mg/kg po qd): *** (*** = P ≤ 0.001) | Median survival Ratio (MOLM-13 cells; 4 mg/kg po qd): 0.4091 | Median survival (MOLM-13 cells; 4 mg/kg po qd): 44 | Hazard Ratio (Logrank) Ratio (MOLM-13 cells; 4 mg/kg po qd): 4.397 | Hazard Ratio (Mantel-Haenszel) Ratio (MOLM-13 cells; 4 mg/kg po qd): 21.48

Cc1c(-c2ccc(-c3ccccc3F)cc2)nc2ccc(F)cc2c1C(=O)O [BRQ, 6-fluoro-2-(2′-fluoro-1,1-biphenyl-4-yl)-3-methyl-4-quinolinecarboxylic acid, reference compound]
CALR surface expression (MFI) (MV4-11 cells): upregulated | CD47 surface expression (MFI) (MV4-11 cells): upregulated | CD47 surface expression [1]: upregulate surface CD47 expression regardless of the P53 mutation status | SIRPα surface expression [1]: upregulate surface SIRPα expression regardless of the P53 mutation status

CCCCOc1cccc(-c2ccc(-c3cc(C(=O)O)c4cc(F)ccc4n3)cc2)c1 [Cpd4, 2-(3′-butoxy-[1,1′-biphenyl]-4-yl)-6-fluoroquinoline-4-carboxylic acid]
CALR surface expression (MFI) (MV4-11 cells): upregulated | CD47 surface expression (MFI) (MV4-11 cells): upregulated | ILS (MOLM-13 cells; 4 mg/kg po qd): 125 | Mean BW Nadir (MOLM-13 cells; 4 mg/kg po qd): −4.1% | Median TTE (MOLM-13 cells; 4 mg/kg po qd): 40.5 | n Remaining Day 106 (MOLM-13 cells; 4 mg/kg po qd): 0 | Statistical Significance (MOLM-13 cells; 4 mg/kg po qd): *** (*** = P ≤ 0.001) | Deaths TR (MOLM-13 cells; 10 mg/kg po qd): 0 | ILS (MOLM-13 cells; 10 mg/kg po qd): 183 | Mean BW Nadir (MOLM-13 cells; 10 mg/kg po qd): −3.5% | Median TTE (MOLM-13 cells; 10 mg/kg po qd): 51.0 | n Remaining Day 106 (MOLM-13 cells; 10 mg/kg po qd): 0 | Statistical Significance (MOLM-13 cells; 10 mg/kg po qd): *** (*** = P ≤ 0.001) | Median survival Ratio (MOLM-13 cells; 4 mg/kg po qd): 0.4444 | Median survival Ratio (MOLM-13 cells; 10 mg/kg po qd): 0.3529 | Median survival (MOLM-13 cells; 4 mg/kg po qd): 40.5 | Median survival (MOLM-13 cells; 10 mg/kg po qd): 51 | Hazard Ratio (Logrank) Ratio (MOLM-13 cells; 4 mg/kg po qd): 4.553 | Hazard Ratio (Mantel-Haenszel) Ratio (MOLM-13 cells; 4 mg/kg po qd): 25.21 | Hazard Ratio (Logrank) Ratio (MOLM-13 cells; 10 mg/kg po qd): 4.553 | Hazard Ratio (Mantel-Haenszel) Ratio (MOLM-13 cells; 10 mg/kg po qd): 25.21 | CD47 surface expression (MM1.S): increase in CD47 surface expression in these cell lines apparent starting at 48 h | overall cell viability (U266B1; 48 h, 96 h, 144 h): dose-dependent correlation in Cpd4 concentration and overall cell viability | surface expression of CD47 (median fluorescence intensity, antibody binding capacity) (U266B1; 96 h and 144 h): increased in a dose-dependent manner | CD47 surface expression [1]: upregulate surface CD47 expression regardless of the P53 mutation status | SIRPα surface expression [1]: upregulate surface SIRPα expression regardless of the P53 mutation status | IC50 [2]: 11 nM | CD47 surface expression (H929): increase in CD47 surface expression in these cell lines apparent starting at 48 h | ILS (Increased Life Span) (MOLM-13 tumor cells; Cpd4 4.12 mg/kg po qd to end): 174.1 | Median TTE (Median Time to Endpoint) (MOLM-13 tumor cells; Cpd4 4.12 mg/kg po qd to end): 37 days | NTR (No. of Non-treatment-related Deaths, due to Accident/Unknown Etiology) (MOLM-13 tumor cells; Cpd4 4.12 mg/kg po qd to end): 0 | NTRm (No. of Non-treatment-related Deaths, due to Metastasis) (MOLM-13 tumor cells; Cpd4 4.12 mg/kg po qd to end): 0 | TR (No. of Treatment-related Deaths) (MOLM-13 tumor cells; Cpd4 4.12 mg/kg po qd to end): 0 | s (Number of Remaining Animals) (MOLM-13 tumor cells; Cpd4 4.12 mg/kg po qd to end): 0 | BW Nadir (Lowest Mean Body Weight for Group) (MOLM-13 tumor cells; Cpd4 4.12 mg/kg po qd to end): −9.0% (35) | ILS (Increased Life Span) (MOLM-13 tumor cells; Cpd4 10.31 mg/kg po qd to end): 225.9 | Median TTE (Median Time to Endpoint) (MOLM-13 tumor cells; Cpd4 10.31 mg/kg po qd to end): 44 days | NTR (No. of Non-treatment-related Deaths, due to Accident/Unknown Etiology) (MOLM-13 tumor cells; Cpd4 10.31 mg/kg po qd to end): 0 | NTRm (No. of Non-treatment-related Deaths, due to Metastasis) (MOLM-13 tumor cells; Cpd4 10.31 mg/kg po qd to end): 0 | TR (No. of Treatment-related Deaths) (MOLM-13 tumor cells; Cpd4 10.31 mg/kg po qd to end): 0 | s (Number of Remaining Animals) (MOLM-13 tumor cells; Cpd4 10.31 mg/kg po qd to end): 5 | BW Nadir (Lowest Mean Body Weight for Group) (MOLM-13 tumor cells; Cpd4 10.31 mg/kg po qd to end): −5.2% (42)

O=C(N[C@@H]1CCCc2c1[nH]c1ccc(Cl)cc21)c1ccccn1 [GSK983]
EC50 [3]: 5 to 20 nM
